From patent US4272437A, “Antibacterial agents, and 4-thio azetidinone intermediates” (priority 1979, dated 1981)
≈ marks a conversion by molar mass, not a printed value. Where two headings read alike, the source gives them in different places.

What was measured:
[1] = test system: Gram-negative and Gram-positive organisms; settings: literature; cited from earlier work
[2] = in vitro and in vivo, literature; cited from earlier work
β-lactamases = settings: literature; cited from earlier work
Str. pneumoniae A-9585 = assay: MIC, tube dilution, Streptococcus pneumoniae A9585; assay type: cell-based; settings: Streptococcus pneumoniae, A9585, Str. pneumoniae A9585; overnight 37° C., Nutrient Broth; read-out: Minimum Inhibitory Concentration (M.I.C.)
Excerpt: (§1) Representative compounds of the present invention were subjected to in vitro antibiotic screening against a variety of microorganisms.

E. coli A-20341-1 = assay: MIC, tube dilution, Escherichia coli A20341-1; assay type: cell-based
Excerpt: as §1

Ser. marcescens A-20019 = assay: MIC, tube dilution, Serratia marcescens A20019; assay type: cell-based; settings: Serratia marcescens, A20019, Serratia marcescens A20019; overnight 37° C.; read-out: Minimum Inhibitory Concentration (M.I.C.)
Excerpt: as §1

Proteus rettgeri A21203 = assay: MIC, tube dilution, Proteus rettgeri A21203; assay type: cell-based; settings: Providencia rettgeri, overnight 37° C., read-out: Minimum Inhibitory Concentration (M.I.C.)
Excerpt: as §1

[3] = test system: Staph. aureus A-9537 and 50% serum; assay: MIC, tube dilution, Staph. aureus A9537 + 50% serum; assay type: cell-based, Staphylococcus aureus; settings: Staphylococcus aureus, overnight 37° C., read-out: Minimum Inhibitory Concentration (M.I.C.)
Excerpt: as §1

Ent. cloacae A-9656 = assay: MIC, tube dilution, Enterobacter cloacae A9656; assay type: cell-based; settings: overnight 37° C., read-out: Minimum Inhibitory Concentration (M.I.C.)
Excerpt: as §1

Staph. aureus A-9537 = assay: MIC, tube dilution, Staphylococcus aureus A9537; assay type: cell-based; settings: Staphylococcus aureus, A9537, Staph. aureus A9537; overnight 37° C., Nutrient Broth; read-out: Minimum Inhibitory Concentration (M.I.C.)
Excerpt: as §1

[4] = test system: Hemophilus influenzae A9833; assay: MIC, tube dilution, Hemophilus influenzae A9833; assay type: cell-based; settings: Haemophilus influenzae, A9833, read-out: Minimum Inhibitory Concentration (M.I.C.)
Excerpt: as §1

[5] = Mouse blood levels after intramuscular administration; assay type: in vivo; settings: average of 6 mice, read-out: Mouse blood level
Experimental: Mouse blood levels after intramuscular administration of representative compounds of the present invention were determined and are reported in the table below.

S. aureus A9537 = assay: In vivo protection of mice, lethal infection with S. aureus A9537; settings: IM, 2 treatments; for ED50: Staphylococcus aureus, A9537, im, read-out: PD50
Experimental: (§2) Representative compounds of the present invention were also tested in vivo in mice and their PD50 (dose of compound in mg/kg required to protect 50% of the treated mice against an otherwise lethal infection of a micro-organism) values determined with respect to the test organisms shown below.

Pr. mirabilis A-9900 = assay: MIC, tube dilution, Proteus mirabilis A9900; assay type: cell-based; settings: Proteus mirabilis, A9900, Proteus mirabilis A9900; overnight 37° C.; read-out: Minimum Inhibitory Concentration (M.I.C.)
Excerpt: as §1

Ps. aeruginosa A-9843A = assay: MIC, tube dilution, Pseudomonas aeruginosa A9843A; assay type: cell-based; settings: Pseudomonas aeruginosa, A9843A, read-out: Minimum Inhibitory Concentration (M.I.C.), Pseudomonas aeruginosa A9843A; overnight 37° C.
Excerpt: as §1

Str. pyogenes A-9604 = assay: MIC, tube dilution, Streptococcus pyogenes A9604; assay type: cell-based; settings: Streptococcus pyogenes, A9604, Str. pyogenes A9604; overnight 37° C., Nutrient Broth; read-out: Minimum Inhibitory Concentration (M.I.C.)
Excerpt: as §1

E. coli A-15119 = assay: MIC, tube dilution, Escherichia coli A15119; assay type: cell-based; settings: Escherichia coli, A15119, E. coli A15119; overnight 37° C.; read-out: Minimum Inhibitory Concentration (M.I.C.)
Excerpt: as §1

K. pneumoniae A-15130 = assay: MIC, tube dilution, Klebsiella pneumoniae A15130; assay type: cell-based; settings: Klebsiella pneumoniae, A15130, K. pneumoniae A15130; overnight 37° C.; read-out: Minimum Inhibitory Concentration (M.I.C.)
Excerpt: as §1

Pr. morganii A-15153 = assay: MIC, tube dilution, Proteus morganii A15153; assay type: cell-based; settings: Morganella morganii, A15153, Proteus morganii A15153; overnight 37° C.; read-out: Minimum Inhibitory Concentration (M.I.C.)
Excerpt: as §1

Str. faecalis A-20688 = assay: MIC, tube dilution, Streptococcus faecalis A20688; assay type: cell-based; settings: Enterococcus faecalis, A20688, Str. faecalis A20688; overnight 37° C.; read-out: Minimum Inhibitory Concentration (M.I.C.)
Excerpt: as §1

Ent. cloacae A-9659 = assay: MIC, tube dilution, Enterobacter cloacae A9659; assay type: cell-based; settings: Enterobacter cloacae, A9659, Enterobacter cloacae A9659; overnight 37° C.; read-out: Minimum Inhibitory Concentration (M.I.C.)
Excerpt: as §1

[6] = test system: Staph. aureus (Pen-Res) A-9606; assay: MIC, tube dilution, Staphylococcus aureus A9606 (Pen-Res); assay type: cell-based; settings: Staphylococcus aureus, Staph. aureus A9606 (Pen-Res); overnight 37° C.; read-out: Minimum Inhibitory Concentration (M.I.C.)
Excerpt: as §1

[7] = test system: Klebsiella species A20468; assay: MIC, tube dilution, Klebsiella species A20468; assay type: cell-based; settings: Klebsiella species (K. pneumoniae) A20468; overnight 37° C.; read-out: Minimum Inhibitory Concentration (M.I.C.)
Excerpt: as §1

[8] = test system: Staph. aureus (Meth-Res) A-15097; assay: MIC, tube dilution, Staphylococcus aureus A15097 (Meth-Res); assay type: cell-based; settings: Staphylococcus aureus, overnight 37° C.
Excerpt: as §1

Ps. aeruginosa A-21213 = assay: MIC, tube dilution, Pseudomonas aeruginosa A21213; assay type: cell-based; settings: overnight 37° C., read-out: Minimum Inhibitory Concentration (M.I.C.)
Excerpt: as §1

[9] = test system: Providencia stuartii A21205; assay: MIC, tube dilution, Providencia stuartii (Pr. rettgeri) A21205; assay type: cell-based; settings: Providencia stuartii, A21205, Providencia stuartii (Pr. rettgeri) A21205; overnight 37° C.; read-out: Minimum Inhibitory Concentration (M.I.C.)
Excerpt: as §1

S. aureus A9606 = assay: In vivo protection of mice, lethal infection with S. aureus A9606; settings: Staphylococcus aureus, IM, 2 treatments, 8 × 10^8 organisms, read-out: PD50
Experimental: as §2

S. pneumoniae A9585 = assay: In vivo protection of mice, lethal infection with S. pneumoniae A9585; settings: Streptococcus pneumoniae, A9585, im, 2 treatments, read-out: PD50
Experimental: as §2

K. pneumoniae A15130 = assay: In vivo protection of mice, lethal infection with K. pneumoniae A15130; settings: Klebsiella pneumoniae, IM, 2 treatments, 1.2 × 10^3 organisms, read-out: PD50
Experimental: as §2

S. pyogenes A9604 = assay: In vivo protection of mice, lethal infection with S. pyogenes A9604; settings: Streptococcus pyogenes, A9604, im, 2 treatments, read-out: PD50
Experimental: as §2

[10] = stability of isolated product (light, handling); assay type: physicochemical
Proteus vulgaris A21559 = assay: MIC, tube dilution, Proteus vulgaris A21559; assay type: cell-based; settings: Proteus vulgaris, A21559, Proteus vulgaris A21559; overnight 37° C.; read-out: Minimum Inhibitory Concentration (M.I.C.)
Excerpt: as §1

[11] = Escherichia coli, A203411, E. coli A20341-1; overnight 37° C.; read-out: Minimum Inhibitory Concentration (M.I.C.)

O=C(O)[C@H]1/C(=C/CO)O[C@@H]2CC(=O)N21 [clavulanic acid]
antibacterial activity [1]: low order of antibacterial activity | enhancement of activity of penicillins and cephalosporins [2]: enhances the in vitro and in vivo activity of some penicillins and cephalosporins | β-lactamase inhibition (β-lactamases): inhibits the action of certain β-lactamases

NCCC1=C(C(=O)O)N2C(=O)CC2S1 (centres unmarked) [Example 24, 2-Aminoethylpenem-3-carboxylic Acid]
MIC (Str. pneumoniae A-9585): 2 µg/mL (≈ 9.34 µM) | MIC (E. coli A-20341-1; Escherichia coli, A203411; E. coli A20341-1; overnight 37° C.; read-out: Minimum Inhibitory Concentration (M.I.C.)): 125 µg/mL (≈ 583 µM) | MIC (Ser. marcescens A-20019): 63 µg/mL (≈ 294 µM) | MIC (Proteus rettgeri A21203; Proteus rettgeri A21203): 125 µg/mL (≈ 583 µM) | MIC [3]: 16 µg/mL | MIC (Ent. cloacae A-9656; Enterobacter cloacae A9656): 125 µg/mL (≈ 583 µM) | MIC (Staph. aureus A-9537): 4 µg/mL (≈ 18.7 µM) | MIC [4]: > 125 µg/mL | concentration at 10 min ([5]; 10 minutes after IM 40 mg/kg): 51400 ng/mL | concentration at 20 min ([5]; 20 minutes after IM 40 mg/kg): 37100 ng/mL | concentration at 0.5 h ([5]; 30 minutes after IM 40 mg/kg): 21800 ng/mL | concentration at 0.75 h ([5]; 45 minutes after IM 40 mg/kg): 9400 ng/mL | concentration at 1 h ([5]; 60 minutes after IM 40 mg/kg): 5000 ng/mL | concentration at 1.5 h ([5]; 90 minutes after IM 40 mg/kg): < 3100 ng/mL | concentration at 2 h ([5]; 120 minutes after IM 40 mg/kg): < 3100 ng/mL | ED50 (S. aureus A9537; 1 × 10^6 organisms): 0.63 mg/kg | MIC (Pr. mirabilis A-9900): 63 µg/mL (≈ 294 µM) | MIC (Ps. aeruginosa A-9843A): 125 µg/mL (≈ 583 µM) | MIC (Str. pyogenes A-9604): 2 µg/mL (≈ 9.34 µM) | MIC (E. coli A-15119): 32 µg/mL (≈ 149 µM) | MIC (K. pneumoniae A-15130): > 125 µg/mL | MIC (Pr. morganii A-15153): 125 µg/mL (≈ 583 µM) | MIC (Str. faecalis A-20688): 63 µg/mL (≈ 294 µM) | MIC (Ent. cloacae A-9659): 63 µg/mL (≈ 294 µM) | MIC [6]: 8 µg/mL (≈ 37.3 µM) | MIC [7]: 125 µg/mL (≈ 583 µM) | MIC ([8]; read-out: Minimum Inhibitory Concentration (M.I.C.), Staph. aureus A15097 (Meth-Res)): > 125 µg/mL | MIC (Ps. aeruginosa A-21213; Pseudomonas aeruginosa A21213): > 125 µg/mL

CC1=C(C(=O)O)N2C(=O)C[C@H]2S1 [Preparation 2,3, 2-Methylpenem-3-carboxylic Acid]
MIC (E. coli A-20341-1; [11]): 16 µg/mL (≈ 86.4 µM) | PD50 (S. aureus A9537; 1.1 × 10^6 organisms, listed as Prep. 2,3): 22 mg/kg/treatment | ED50 (S. aureus A9537; 1.1 × 10^6 organisms): 13 mg/kg | ED50 (S. aureus A9537; 7.8 × 10^5 organisms): 13 mg/kg | MIC [9]: 4 µg/mL (≈ 21.6 µM) | ED50 (S. aureus A9606): > 50 mg/kg | ED50 (S. pneumoniae A9585; 3 × 10^4 organisms): > 12.5 mg/kg | ED50 (S. pneumoniae A9585; 3.4 × 10^4 organisms): > 50 mg/kg | ED50 (K. pneumoniae A15130): > 400 mg/kg | ED50 (S. pyogenes A9604; 1.2 × 10^3 organisms): > 50 mg/kg | ED50 (S. pyogenes A9604; 8 × 10^3 organisms): > 12.5 mg/kg | MIC (Str. faecalis A-20688): 32 µg/mL (≈ 173 µM) | MIC [6]: 1 µg/mL (≈ 5.4 µM) | MIC [7]: > 125 µg/mL | MIC (Ps. aeruginosa A-21213; Pseudomonas aeruginosa A21213): > 125 µg/mL

NC1CC1C1=C(C(=O)O)N2C(=O)CC2S1 (stereo not drawn) [Example 99, 2-(trans-2-Aminocyclopropyl)-penem-3-carboxylic Acid]
MIC (Str. pneumoniae A-9585): 1 µg/mL (≈ 4.42 µM) | MIC (E. coli A-20341-1; [11]): 63 µg/mL (≈ 278 µM) | MIC (Ser. marcescens A-20019): 16 µg/mL (≈ 70.7 µM) | stability [10]: suspected to be very light sensitive | MIC (Proteus rettgeri A21203; A21203, Proteus rettgeri A21203): 8 µg/mL (≈ 35.4 µM) | MIC [3]: 16 µg/mL | MIC (Ent. cloacae A-9656; Enterobacter cloacae, A9656, Enterobacter cloacae A9656): 16 µg/mL (≈ 70.7 µM) | MIC (Staph. aureus A-9537): 1 µg/mL (≈ 4.42 µM) | MIC (Pr. mirabilis A-9900): 8 µg/mL (≈ 35.4 µM) | MIC (Ps. aeruginosa A-9843A): > 63 µg/mL | MIC (Str. pyogenes A-9604): 1 µg/mL (≈ 4.42 µM) | MIC (E. coli A-15119): 8 µg/mL (≈ 35.4 µM) | MIC (K. pneumoniae A-15130): 32 µg/mL (≈ 141 µM) | MIC (Pr. morganii A-15153): 16 µg/mL (≈ 70.7 µM) | MIC (Str. faecalis A-20688): 63 µg/mL (≈ 278 µM) | MIC (Proteus vulgaris A21559): 16 µg/mL (≈ 70.7 µM) | MIC (Ent. cloacae A-9659): 16 µg/mL (≈ 70.7 µM) | MIC [6]: 4 µg/mL (≈ 17.7 µM) | MIC [7]: > 63 µg/mL | MIC ([8]; Staph. aureus A15097 (Meth-Res), read-out: Minimum Inhibitory Concentration (M.I.C.)): 32 µg/mL (≈ 141 µM) | MIC (Ps. aeruginosa A-21213; Pseudomonas aeruginosa, A21213, Pseudomonas aeruginosa A21213): > 63 µg/mL

CC(=O)OC[C@H]1C(=O)N2C(C(=O)O)=C(CN)S[C@H]12 (relative stereo) [cis 6-Acetoxymethyl-2-aminomethylpenem-3-carboxylic Acid]
stability [10]: unstable
